# Assay results from US8865662B2, “Macrolides and their use” (Basilea Pharmaceutica AG, priority 2009, dated 2014).
# Test system: human PDE4
# Test: IMAP FP enzymatic assay of PDE4 inhibition
# Format: biochemical
# Conditions: PDE4 partially purified from human monocytic U-937 cells; fluorescently labeled cAMP substrate; 90 minutes at room temperature; fluorescence polarization
# Protocol: PDE4 specifically hydrolyzes cAMP and releases the product AMP. The potency of PDE inhibition by said agents is determined in an in vitro enzymatic assay. The assay is commercially available (IMAP™ FP assay Molecular Devices Corp. (MDS)) and is optimized for the use of human PDE4. Fluorescently labeled cAMP is hydrolyzed by PDE4 and in a second step, binding of labeled product to a large binding partner allowed product detection by fluorescence polarization (FP) measurements.
# PDE4 is partially purified from undifferentiated human monocytic cells (U-937) according to Thorpy et al. 1992 (J. Pharmacol. Exp. Ther. 263: 1195). […] In addition, PDE4 preparations are validated by inhibition studies with PDE4-specific and unspecific PDE inhibitors.
# Stock solutions of test compounds are made in DMSO and diluted in assay buffer (10 mM Tris-HCl, 10 mM MgCl2, 0.1% BSA 0.05% NaN3, pH 7.2) to the desired concentrations. The solutions used in the assay contained test compound in assay buffer with 2% DMSO.
# 10 μl of substrate (at a concentration recommended by the manufacturer) are mixed with 5 μl of appropriately diluted PDE and 5 μl of test compound solution. 5 μl of reaction buffer with 2% DMSO are used for control reactions. […] After incubation for 90 minutes at room temperature, 60 μl of binding reagent are added as specified by the manufacturer. Binding is allowed to proceed for 30 minutes and fluorescence polarization is measured. Dose dependence of PDE inhibition is measured by assaying dilution series of test compounds in duplicates. IC50 values are determined from the measured activities by curve fitting.
row,Structure (SMILES),IC50 [nM]
1,CC[C@H]1OC(=O)[C@H](C)[C@@H](O[C@H]2C[C@@](C)(OC)[C@@H](O)[C@H](C)O2)[C@H](C)[C@@H](O[C@@H]2O[C@H](C)C[C@H](N(C)C(=O)N3CCOCC3)[C@H]2O)[C@](C)(OC)C[C@@H](C)C(=O)[C@H](C)[C@H]2N(CCCOc3cc(C(=O)Nc4c(Cl)cncc4Cl)ccc3OC)C(=O)O[C@]12C [Example 3],630
2,CC[C@H]1OC(=O)[C@H](C)[C@@H](O[C@H]2C[C@@](C)(OC)[C@@H](O)[C@H](C)O2)[C@H](C)[C@@H](O[C@@H]2O[C@H](C)C[C@H](N(C)C(=O)N3CCOCC3)[C@H]2O)[C@](C)(OC)C[C@@H](C)C(=O)[C@H](C)[C@H]2N(CCCN(Cc3c(Cl)cncc3Cl)c3ccc(OC)c(OC4CCCC4)c3)C(=O)O[C@]12C [Example 1],230
3,CC[C@H]1OC(=O)[C@H](C)[C@@H](O)[C@H](C)[C@@H](O[C@@H]2O[C@H](C)C[C@H](N(C)C(=O)N3CCOCC3)[C@H]2O)[C@](C)(OC)C[C@@H](C)C(=O)[C@H](C)[C@H]2N(CCCN(Cc3c(Cl)cncc3Cl)c3ccc(OC)c(OC4CCCC4)c3)C(=O)O[C@]12C [Example 2],880

# The next molecules have a lower IC50 than those just listed; values first:
row,IC50 [nM],Structure (SMILES)
1,200,CC[C@H]1OC(=O)[C@H](C)[C@@H](OC(=O)CN2CCOCC2)[C@H](C)[C@@H](O[C@@H]2O[C@H](C)C[C@H](N(C)C(=O)CN(C)C)[C@H]2O)[C@](C)(OC)C[C@@H](C)C(=O)[C@H](C)[C@H]2N(CCCOc3cc(C(=O)Nc4c(Cl)cncc4Cl)ccc3OC)C(=O)O[C@]12C [Example 5]
2,30,CC[C@H]1OC(=O)[C@H](C)[C@@H](O)[C@H](C)[C@@H](O[C@@H]2O[C@H](C)C[C@H](N(C)C(=O)N3CCOCC3)[C@H]2O)[C@](C)(OC)C[C@@H](C)C(=O)[C@H](C)[C@H]2N(CCCOc3cc(C(=O)Nc4c(Cl)cncc4Cl)ccc3OC)C(=O)O[C@]12C [Example 4]
